Experimental data published in US20040087633A1, “Methylidene oxazolidinone compound and preparation method thereof” (Korea Institute of Science and Technology, priority 2002, published 2004).
Converted amounts (≈) assume the structure as drawn.

Key:
Experiment in all cases: Anti-microbial activity test in vitro (agar dilution MIC)
S. epidermidis ATCC12228 = format: cell-based; settings: S. epidermidis ATCC12228; Agar Dilution method, Mueller Hinton Agar, 18 hours at 37° C.
Experimental: (§1) Anti-microbial activity test in vitro
(§2) Strains were cultivated for 18 hours at 37° C. in Agar Dilution method using Mueller Hinton Agar, and then plane plates inoculated with the strains by diluting them two times gradually were aligned in a row. Minimum inhibition concentration (MIC, μg/ml) for the representative compounds of the present invention, Linezolid (LZD) and vancomycin (VAN) were decided through visual observation, and the results are shown in the following tables 2 and 3.

S. aureus ATCC 29213 = format: cell-based; settings: Agar Dilution method, Mueller Hinton Agar, 18 hours at 37° C.
Experimental: as §1, §2

E. faecium C6301 = format: cell-based; settings: E. faecium C6301; Agar Dilution method, Mueller Hinton Agar, 18 hours at 37° C.
Experimental: as §1, §2

E. faecalis ATCC29212 = format: cell-based; settings: E. faecalis ATCC29212; Agar Dilution method, Mueller Hinton Agar, 18 hours at 37° C.
Experimental: as §1, §2

S. pyogenes ATCC8668 = format: cell-based; settings: S. pyogenes ATCC8668; Agar Dilution method, Mueller Hinton Agar, 18 hours at 37° C.
Experimental: as §1, §2

S. epidermidis C2230 = format: cell-based; settings: S. epidermidis C2230; Agar Dilution method, Mueller Hinton Agar, 18 hours at 37° C.
Experimental: as §1, §2

S. epidermidis C2235 = format: cell-based; settings: S. epidermidis C2235; Agar Dilution method, Mueller Hinton Agar, 18 hours at 37° C.
Experimental: as §1, §2

E. faecalis C6288 = format: cell-based; settings: E. faecalis C6288; Agar Dilution method, Mueller Hinton Agar, 18 hours at 37° C.
Experimental: as §1, §2

E. faecalis C6291 = format: cell-based; settings: E. faecalis C6291; Agar Dilution method, Mueller Hinton Agar, 18 hours at 37° C.
Experimental: as §1, §2

E. faecium C2252 = format: cell-based; settings: E. faecium C2252; Agar Dilution method, Mueller Hinton Agar, 18 hours at 37° C.
Experimental: as §1, §2

S. pyogenes C6003 = format: cell-based; settings: S. pyogenes C6003; Agar Dilution method, Mueller Hinton Agar, 18 hours at 37° C.
Experimental: as §1, §2

S. pyogenes C6012 = format: cell-based; settings: S. pyogenes C6012; Agar Dilution method, Mueller Hinton Agar, 18 hours at 37° C.
Experimental: as §1, §2

VRE C6487 = format: cell-based, Enterococcus faecium; settings: VRE C6487; Agar Dilution method, Mueller Hinton Agar, 18 hours at 37° C.
Experimental: as §1, §2

VRE C6488 = format: cell-based, Enterococcus faecium; settings: VRE C6488; Agar Dilution method, Mueller Hinton Agar, 18 hours at 37° C.
Experimental: as §1, §2

MSSA C7142 = format: cell-based, Staphylococcus aureus; settings: MSSA C7142; Agar Dilution method, Mueller Hinton Agar, 18 hours at 37° C.
Experimental: as §1, §2

CRSA C1062 = format: cell-based, Staphylococcus aureus; settings: CRSA C1062; Agar Dilution method, Mueller Hinton Agar, 18 hours at 37° C.
Experimental: as §1, §2

MSSA C2214 = format: cell-based, Staphylococcus aureus; settings: MSSA C2214; Agar Dilution method, Mueller Hinton Agar, 18 hours at 37° C.
Experimental: as §1, §2

MRSA C5100 = format: cell-based, Staphylococcus aureus; settings: MRSA C5100; Agar Dilution method, Mueller Hinton Agar, 18 hours at 37° C.
Experimental: as §1, §2

MRSA C2207 = format: cell-based, Staphylococcus aureus; settings: MRSA C2207; Agar Dilution method, Mueller Hinton Agar, 18 hours at 37° C.
Experimental: as §1, §2

MRSA C6068 = format: cell-based, Staphylococcus aureus; settings: MRSA C6068; Agar Dilution method, Mueller Hinton Agar, 18 hours at 37° C.
Experimental: as §1, §2

CRSA C6043 = format: cell-based, Staphylococcus aureus; settings: CRSA C6043; Agar Dilution method, Mueller Hinton Agar, 18 hours at 37° C.
Experimental: as §1, §2

Structure (SMILES)	Minimum inhibition concentration (MIC) (S. epidermidis ATCC12228) [µg/mL]	Minimum inhibition concentration (MIC) (S. aureus ATCC 29213) [µg/mL]	Minimum inhibition concentration (MIC) (E. faecium C6301) [µg/mL]	Minimum inhibition concentration (MIC) (E. faecalis ATCC29212) [µg/mL]	Minimum inhibition concentration (MIC) (S. pyogenes ATCC8668) [µg/mL]	Minimum inhibition concentration (MIC) (S. epidermidis C2230) [µg/mL]	Minimum inhibition concentration (MIC) (S. epidermidis C2235) [µg/mL]	Minimum inhibition concentration (MIC) (E. faecalis C6288) [µg/mL]	Minimum inhibition concentration (MIC) (E. faecalis C6291) [µg/mL]	Minimum inhibition concentration (MIC) (E. faecium C2252) [µg/mL]	Minimum inhibition concentration (MIC) (S. pyogenes C6003) [µg/mL]	Minimum inhibition concentration (MIC) (S. pyogenes C6012) [µg/mL]	Minimum inhibition concentration (MIC) (VRE C6487) [µg/mL]	Minimum inhibition concentration (MIC) (VRE C6488) [µg/mL]	Minimum inhibition concentration (MIC) (MSSA C7142) [µg/mL]	Minimum inhibition concentration (MIC) (CRSA C1062) [µg/mL]	Minimum inhibition concentration (MIC) (MSSA C2214) [µg/mL]	Minimum inhibition concentration (MIC) (MRSA C5100) [µg/mL]	Minimum inhibition concentration (MIC) (MRSA C2207) [µg/mL]	Minimum inhibition concentration (MIC) (MRSA C6068) [µg/mL]	further results
CC(=O)NC[C@H]1CN(c2ccc(N3CCC(=Cc4cc(-c5csnc5C)no4)CC3)c(F)c2)C(=O)O1 [Compound 10, N-[[(5S)-3-[3-fluoro-4-((4-(3-(3-methyl-isothiazol-4-yl)-iso-xazolyl)methylidene)piperidinyl)phenyl]-2-oxo-5-oxazolidinyl]methyl]acetamide]	2 (≈ 3.91 µM)	16 (≈ 31.3 µM)	8 (≈ 15.6 µM)	16 (≈ 31.3 µM)	2 (≈ 3.91 µM)	4 (≈ 7.82 µM)	4 (≈ 7.82 µM)	16 (≈ 31.3 µM)	8 (≈ 15.6 µM)	8 (≈ 15.6 µM)	8 (≈ 15.6 µM)	2 (≈ 3.91 µM)	4 (≈ 7.82 µM)	8 (≈ 15.6 µM)	8 (≈ 15.6 µM)	16 (≈ 31.3 µM)	16 (≈ 31.3 µM)	8 (≈ 15.6 µM)	16 (≈ 31.3 µM)	8 (≈ 15.6 µM)	Minimum inhibition concentration (MIC) (CRSA C6043): 16 µg/mL (≈ 31.3 µM)
CCOC(=O)C(C)=C1CCN(c2ccc(N3C[C@H](CNC(C)=O)OC3=O)cc2F)CC1 [Compound 13, N-[[(5S)-3-[3-fluoro-4-(4-(1-ethoxycarbonylethylidene)-piperidinyl)phenyl]-2-oxo-5-oxazolidinyl]methyl]acetamide]	4 (≈ 9.23 µM)	16 (≈ 36.9 µM)	8 (≈ 18.5 µM)	16 (≈ 36.9 µM)	8 (≈ 18.5 µM)	16 (≈ 36.9 µM)	8 (≈ 18.5 µM)	16 (≈ 36.9 µM)	8 (≈ 18.5 µM)	8 (≈ 18.5 µM)	4 (≈ 9.23 µM)	16 (≈ 36.9 µM)	1 (≈ 2.31 µM)	8 (≈ 18.5 µM)	8 (≈ 18.5 µM)	16 (≈ 36.9 µM)	16 (≈ 36.9 µM)	8 (≈ 18.5 µM)	16 (≈ 36.9 µM)	8 (≈ 18.5 µM)	Minimum inhibition concentration (MIC) (CRSA C6043): 8 µg/mL (≈ 18.5 µM)

Now from value to compound, other results behind:

Minimum inhibition concentration (MIC) (S. epidermidis ATCC12228) [µg/mL]	Minimum inhibition concentration (MIC) (S. aureus ATCC 29213) [µg/mL]	Minimum inhibition concentration (MIC) (E. faecium C6301) [µg/mL]	Minimum inhibition concentration (MIC) (E. faecalis ATCC29212) [µg/mL]	Minimum inhibition concentration (MIC) (S. pyogenes ATCC8668) [µg/mL]	Minimum inhibition concentration (MIC) (S. epidermidis C2230) [µg/mL]	Minimum inhibition concentration (MIC) (S. epidermidis C2235) [µg/mL]	Minimum inhibition concentration (MIC) (E. faecalis C6288) [µg/mL]	Minimum inhibition concentration (MIC) (E. faecalis C6291) [µg/mL]	Minimum inhibition concentration (MIC) (E. faecium C2252) [µg/mL]	Minimum inhibition concentration (MIC) (S. pyogenes C6003) [µg/mL]	Minimum inhibition concentration (MIC) (S. pyogenes C6012) [µg/mL]	Minimum inhibition concentration (MIC) (VRE C6487) [µg/mL]	Minimum inhibition concentration (MIC) (VRE C6488) [µg/mL]	Minimum inhibition concentration (MIC) (MSSA C7142) [µg/mL]	Minimum inhibition concentration (MIC) (CRSA C1062) [µg/mL]	Minimum inhibition concentration (MIC) (MSSA C2214) [µg/mL]	Minimum inhibition concentration (MIC) (MRSA C5100) [µg/mL]	Minimum inhibition concentration (MIC) (MRSA C2207) [µg/mL]	Minimum inhibition concentration (MIC) (MRSA C6068) [µg/mL]	Structure (SMILES)	further results
0.5 (≈ 1.29 µM)	2 (≈ 5.18 µM)	2 (≈ 5.18 µM)	2 (≈ 5.18 µM)	2 (≈ 5.18 µM)	2 (≈ 5.18 µM)	2 (≈ 5.18 µM)	2 (≈ 5.18 µM)	2 (≈ 5.18 µM)	2 (≈ 5.18 µM)	0.5 (≈ 1.29 µM)	2 (≈ 5.18 µM)	0.5 (≈ 1.29 µM)	1 (≈ 2.59 µM)	2 (≈ 5.18 µM)	2 (≈ 5.18 µM)	2 (≈ 5.18 µM)	2 (≈ 5.18 µM)	2 (≈ 5.18 µM)	2 (≈ 5.18 µM)	CC(=O)NC[C@H]1CN(c2ccc(N3CCC(=C(C)C#N)CC3)c(F)c2)C(=O)O1 [Compound 16, N-[[(5S)-3-[3-fluoro-4-(4-(1-cyanoethylidene)piperidinyl)-phenyl]-2-oxo-5-oxazolidinyl]methyl]acetamide]	Minimum inhibition concentration (MIC) (CRSA C6043): 2 µg/mL (≈ 5.18 µM)
1 (≈ 2.66 µM)	8 (≈ 21.3 µM)	4 (≈ 10.7 µM)	16 (≈ 42.6 µM)	2 (≈ 5.33 µM)	2 (≈ 5.33 µM)	2 (≈ 5.33 µM)	4 (≈ 10.7 µM)	8 (≈ 21.3 µM)	8 (≈ 21.3 µM)	8 (≈ 21.3 µM)	1 (≈ 2.66 µM)	8 (≈ 21.3 µM)	8 (≈ 21.3 µM)	4 (≈ 10.7 µM)	8 (≈ 21.3 µM)	8 (≈ 21.3 µM)	4 (≈ 10.7 µM)	4 (≈ 10.7 µM)	4 (≈ 10.7 µM)	CC(=O)NC[C@H]1CN(c2ccc(N3CCC(=CC=O)CC3)c(F)c2)C(=O)O1 [Compound 17, N-[[(5S)-3-[3-fluoro-4-(4-(2-oxoethylidene)piperidinyl)-phenyl]-2-oxo-5-oxazolidinyl]methyl]acetamide]	Minimum inhibition concentration (MIC) (CRSA C6043): 4 µg/mL (≈ 10.7 µM)
1 (≈ 2.57 µM)	8 (≈ 20.5 µM)	8 (≈ 20.5 µM)	16 (≈ 41.1 µM)	8 (≈ 20.5 µM)	8 (≈ 20.5 µM)	8 (≈ 20.5 µM)	16 (≈ 41.1 µM)	16 (≈ 41.1 µM)	8 (≈ 20.5 µM)	0.2 (≈ 0.514 µM)	16 (≈ 41.1 µM)	2 (≈ 5.14 µM)	8 (≈ 20.5 µM)	16 (≈ 41.1 µM)	8 (≈ 20.5 µM)	16 (≈ 41.1 µM)	8 (≈ 20.5 µM)	8 (≈ 20.5 µM)	16 (≈ 41.1 µM)	CC(=O)C=C1CCN(c2ccc(N3C[C@H](CNC(C)=O)OC3=O)cc2F)CC1 [Compound 12, N-[[(5S)-3-[3-fluoro-4-(4-methylcarbonylmethylidene-piperidinyl)phenyl]-2-oxo-5-oxazolidinyl]methyl]acetamide]	Minimum inhibition concentration (MIC) (CRSA C6043): 16 µg/mL (≈ 41.1 µM)
